Results on 10 compounds are retold here after patent US5776899A, “Polypeptide and anti-HIV agent prepared therefrom” (Seikagaku Corporation, priority 1993, dated 1998).

Structures are written as SMILES. Values after ≈ are worked out from the molar mass of the structure shown. “Also recorded” adds a separate entry of the source. Positions of bridges follow the written chain, without caps; N, C: chain ends. Non-standard residues stand in square brackets, D forms with d. Residues, ends and D or L forms follow the SMILES beside them. *: point of attachment. FITC = O=C1OC2(c3ccc(O)cc3Oc3cc(O)ccc32)c2ccc(NC(=S)*)cc21; Myristoyl = CCCCCCCCCCCCCC(=O)*; dOrn = NCCC[C@@H](N)C(=O)O; GABA = NCCCC(=O)O

One data set relates to MT-4 cells. Nature of the data set: Cytotoxicity on virus-non-infected MT-4 cells (MTT method). The data set is classed as cell-based. The procedure: (§1) HIV-infected MT-4 cells (2.5×10^4 cells/well, multiplicity of infection (MOI): 0.001) immediately after infection were added together with the test substance with various changes of the concentration to a 96-well microtitre plate. After incubation at 37° C. for 5 days in a CO2 incubator, the number of survivor cells was measured by the MTT method [Pauwels et al.; J. Virol. […] On the other hand, in order to know the cytotoxicity of the test substance on the MT-4 cells, virus-non-infected cells were incubated, likewise as above, together with the test compound with various changes of the concentration. […] Further, the rough ratio of CC50 to EC50, (CC50 /EC50) is expressed as an effective ratio (SI).

Data set [1] has as its system human immunodeficiency virus (HIV). As to the kind of experiment: Antiviral activity against HIV in HIV-infected MT-4 cells (MTT method). The data set is classed as cell-based. To be noted: for SI: rough ratio CC50/EC50. The procedure: as §1
Setting [2] is: Table 5, method of Example 2, virus-non-infected MT-4 cells.
Setting [3] is: Table 5, method of Example 2, HIV-infected MT-4 cells.
The mark [4] stands for this setting: Table 4, virus-non-infected MT-4 cells, 5 days.
The mark [5] stands for this setting: Table 4, HIV-infected MT-4 cells, MOI 0.001, 5 days.

Take `N=C(N)NCCC[C@H](NC(=O)[C@@H]1CSSC[C@H](NC(=O)[C@H](Cc2c[nH]c3ccccc23)NC(=O)[C@H](CCCNC(=N)N)NC(=O)[C@@H](N)CCCNC(=N)N)C(=O)N[C@@H](Cc2ccc(O)cc2)C(=O)N[C@@H](CCCNC(=N)N)C(=O)N[C@@H](CCCCN)C(=O)N[C@H](CCCCNC(=O)CCCN)C(=O)N2CCC[C@H]2C(=O)N[C@@H](Cc2ccc(O)cc2)C(=O)N[C@@H](CCCNC(=N)N)C(=O)N[C@@H](CCCCN)C(=O)N1)C(N)=O` (H-RRWCYRK[dK](GABA)PYRKCR-NH2; disulfide 4-13): in the data set with MT-4 cells (setting [2]), the CC50 worked out at 138.07 µg/mL (≈ 66.3 µM). In data set [1] (Table 5), the “SI (CC50/EC50)” value is reported as 11095. The same compound registered an EC50 in data set [1] (setting [3]) of 0.0165 µg/mL (≈ 0.00793 µM).

Consider `N=C(N)NCCC[C@H](NC(=O)[C@@H]1CSSC[C@H](NC(=O)[C@H](Cc2c[nH]c3ccccc23)NC(=O)[C@H](CCCNC(=N)N)NC(=O)[C@@H](N)CCCNC(=N)N)C(=O)N[C@@H](Cc2ccc(O)cc2)C(=O)N[C@@H](CCCNC(=N)N)C(=O)N[C@@H](CCCCN)C(=O)N[C@H](CCCCNC(=O)CN)C(=O)N2CCC[C@H]2C(=O)N[C@@H](Cc2ccc(O)cc2)C(=O)N[C@@H](CCCNC(=N)N)C(=O)N[C@@H](CCCCN)C(=O)N1)C(N)=O` (H-RRWCYRK[dK](Gly)PYRKCR-NH2; disulfide 4-13), for which the CC50 in the data set on MT-4 cells (setting [2]) turned out to be 44.26 µg/mL (≈ 21.6 µM). This compound also displayed an EC50 in data set [1] (setting [3]) of 0.03 µg/mL (≈ 0.0146 µM).

Turning to `N=C(N)NCCC[C@H](NC(=O)[C@@H]1CSSC[C@H](NC(=O)[C@H](Cc2c[nH]c3ccccc23)NC(=O)[C@H](CCCNC(=N)N)NC(=O)[C@@H](N)CCCNC(=N)N)C(=O)N[C@@H](Cc2ccc(O)cc2)C(=O)N[C@@H](CCCNC(=N)N)C(=O)N[C@@H](CCCCN)C(=O)N[C@H](CCCCN)C(=O)N2CCC[C@H]2C(=O)N[C@@H](Cc2ccc(O)cc2)C(=O)N[C@@H](CCCNC(=N)N)C(=O)N[C@@H](CCCCN)C(=O)N1)C(N)=O` [Polypeptide (1), Arg--Arg--Trp--Cys--Tyr--Arg--Lys--DLys--Pro--Tyr--Arg--Lys--Cys--Arg--NH2] (H-RRWCYRK[dK]PYRKCR-NH2; disulfide 4-13), the figures for the CC50 in the data set on MT-4 cells (setting [4]) and in the data set on MT-4 cells (setting [2]) were 49.8 µg/mL (≈ 24.9 µM) and 65.37 µg/mL (≈ 32.7 µM), respectively. Also, the “cytotoxicity compared with reference compound (in words)” value with MT-4 cells (text comment on Table 4) is recorded as “the same cytotoxicity as that of T-22; also recorded: extremely low cytotoxicity”. The EC50 in data set [1] (setting [5]) was determined as 0.0034 µg/mL (≈ 0.0017 µM); in data set [1] (setting [3]) it was 0.0195 µg/mL (≈ 0.00977 µM). Moreover, the SI in data set [1] (Table 4) was 14,647. For the same compound, in data set [1] (Table 5), the “SI (CC50/EC50)” value stood at 3352. In addition, the “anti-HIV activity compared with reference compound (in words)” value in data set [1] (text comment on the anti-HIV results) is “one-third the concentration of T-22; also recorded: slightly higher”.

For `N=C(N)NCCC[C@H](NC(=O)[C@@H]1CSSC[C@H](NC(=O)[C@H](Cc2c[nH]c3ccccc23)NC(=O)[C@H](CCCNC(=N)N)NC(=O)[C@@H](N)CCCNC(=N)N)C(=O)N[C@@H](Cc2ccc(O)cc2)C(=O)N[C@@H](CCCNC(=N)N)C(=O)N[C@@H](CCCCN)C(=O)N[C@@H](CCCCN)C(=O)NCC(=O)N[C@@H](Cc2ccc(O)cc2)C(=O)N[C@@H](CCCNC(=N)N)C(=O)N[C@@H](CCCCN)C(=O)N1)C(N)=O` [Polypeptide (3), Arg--Arg --Trp--Cys--Tyr--Arg--Lys --Lys--Gly --Tyr--Arg--Lys--Cys--Arg--NH2] (H-RRWCYRKKGYRKCR-NH2; disulfide 4-13), in the data set with MT-4 cells (setting [2]), the CC50 stood at 198.18 µg/mL (≈ 101 µM). Besides, the “SI (CC50/EC50)” value in data set [1] (Table 5) is listed as 3477. The compound also returned an EC50 in data set [1] (setting [3]) of 0.057 µg/mL (≈ 0.0291 µM).

For `N=C(N)NCCC[C@H](NC(=O)[C@@H]1CSSC[C@H](NC(=O)[C@H](Cc2c[nH]c3ccccc23)NC(=O)[C@H](CCCNC(=N)N)NC(=O)[C@@H](N)CCCNC(=N)N)C(=O)N[C@@H](Cc2ccc(O)cc2)C(=O)N[C@@H](CCCNC(=N)N)C(=O)N[C@@H](CCCCN)C(=O)N2CCC[C@H]2C(=O)N[C@H](CCCCN)C(=O)N[C@@H](Cc2ccc(O)cc2)C(=O)N[C@@H](CCCNC(=N)N)C(=O)N[C@@H](CCCCN)C(=O)N1)C(N)=O` [Polypeptide (5), Arg--Arg --Trp--Cys--Tyr--Arg--Lys --Pro--DLys --Tyr--Arg--Lys--Cys--Arg--NH2] (H-RRWCYRKP[dK]YRKCR-NH2; disulfide 4-13), the CC50 in the data set on MT-4 cells (setting [2]) came to 101.20 µg/mL (≈ 50.7 µM). In addition, in data set [1] (Table 5), the “SI (CC50/EC50)” value came to 1321. This compound also yielded an EC50 in data set [1] (setting [3]) of 0.076 µg/mL (≈ 0.0381 µM).

The compound `N=C(N)NCCC[C@H](NC(=O)[C@@H]1CSSC[C@H](NC(=O)[C@H](Cc2c[nH]c3ccccc23)NC(=O)[C@H](CCCNC(=N)N)NC(=O)[C@@H](N)CCCNC(=N)N)C(=O)N[C@@H](Cc2ccc(O)cc2)C(=O)N[C@@H](CCCNC(=N)N)C(=O)N[C@@H](CCCCN)C(=O)N[C@H](CCCN)C(=O)N2CCC[C@H]2C(=O)N[C@@H](Cc2ccc(O)cc2)C(=O)N[C@@H](CCCNC(=N)N)C(=O)N[C@@H](CCCCN)C(=O)N1)C(N)=O` [Polypeptide (6), Arg--Arg --Trp--Cys--Tyr--Arg--Lys --DOrn--Pro --Tyr--Arg--Lys--Cys--Arg--NH2] (H-RRWCYRK[dOrn]PYRKCR-NH2; disulfide 4-13) registered a CC50 in the data set on MT-4 cells (setting [2]) of 55.93 µg/mL (≈ 28.2 µM). In addition, in data set [1] (Table 5), the “SI (CC50/EC50)” value stood at 2728.

On to `CC(=O)N[C@@H](CCCNC(=N)N)C(=O)N[C@@H](CCCNC(=N)N)C(=O)N[C@@H](Cc1c[nH]c2ccccc12)C(=O)N[C@H]1CSSC[C@@H](C(=O)N[C@@H](CCCNC(=N)N)C(N)=O)NC(=O)[C@H](CCCCN)NC(=O)[C@H](CCCNC(=N)N)NC(=O)[C@H](Cc2ccc(O)cc2)NC(=O)[C@@H]2CCCN2C(=O)[C@@H](CCCCN)NC(=O)[C@H](CCCCN)NC(=O)[C@H](CCCNC(=N)N)NC(=O)[C@H](Cc2ccc(O)cc2)NC1=O` [Polypeptide (14), Ac--Arg--Arg --Trp--Cys--Tyr--Arg--Lys --DLys--Pro --Tyr--Arg--Lys--Cys--Arg--NH2] (Ac-RRWCYRK[dK]PYRKCR-NH2; disulfide 4-13), for which, in the data set with MT-4 cells (setting [2]), the CC50 was found to be 78.14 µg/mL (≈ 38.3 µM). For the same compound, the “SI (CC50/EC50)” value in data set [1] (Table 5) stood at 3256. For the same compound, the EC50 in data set [1] (setting [3]) was determined as 0.024 µg/mL (≈ 0.0118 µM).

Consider `CCCCCCCCCCCCCC(=O)N[C@@H](CCCNC(=N)N)C(=O)N[C@@H](CCCNC(=N)N)C(=O)N[C@@H](Cc1c[nH]c2ccccc12)C(=O)N[C@H]1CSSC[C@@H](C(=O)N[C@@H](CCCNC(=N)N)C(N)=O)NC(=O)[C@H](CCCCN)NC(=O)[C@H](CCCNC(=N)N)NC(=O)[C@H](Cc2ccc(O)cc2)NC(=O)[C@@H]2CCCN2C(=O)[C@@H](CCCCN)NC(=O)[C@H](CCCCN)NC(=O)[C@H](CCCNC(=N)N)NC(=O)[C@H](Cc2ccc(O)cc2)NC1=O` [Polypeptide (17), Myr--Arg--Arg --Trp--Cys--Tyr--Arg--Lys --DLys--Pro --Tyr--Arg--Lys--Cys--Arg--NH2] (Myristoyl-RRWCYRK[dK]PYRKCR-NH2; disulfide 4-13), for which the CC50 in the data set with MT-4 cells (setting [2]) was found to be 106.60 µg/mL (≈ 48.3 µM). Also, the “SI (CC50/EC50)” value in data set [1] (Table 5) worked out at 1838. This compound yielded a half-maximal effective concentration (EC50) in data set [1] (setting [3]) of 0.055 µg/mL (≈ 0.0249 µM).

Take `N=C(N)NCCC[C@H](NC(=O)[C@@H]1CSSC[C@H](NC(=O)[C@H](Cc2c[nH]c3ccccc23)NC(=O)[C@H](CCCNC(=N)N)NC(=O)[C@H](CCCNC(=N)N)NC(=S)Nc2ccc3c(c2)C(=O)OC32c3ccc(O)cc3Oc3cc(O)ccc32)C(=O)N[C@@H](Cc2ccc(O)cc2)C(=O)N[C@@H](CCCNC(=N)N)C(=O)N[C@@H](CCCCN)C(=O)N[C@H](CCCCN)C(=O)N2CCC[C@H]2C(=O)N[C@@H](Cc2ccc(O)cc2)C(=O)N[C@@H](CCCNC(=N)N)C(=O)N[C@@H](CCCCN)C(=O)N1)C(N)=O` [Polypeptide (19), FTC--Arg--Arg --Trp--Cys--Tyr--Arg--Lys --DLys--Pro --Tyr--Arg--Lys--Cys--Arg--NH2] ({FITC}-RRWCYRK[dK]PYRKCR-NH2; disulfide 4-13): the CC50 with MT-4 cells (setting [2]) came out at 38.47 µg/mL (≈ 16.1 µM). Besides, the “SI (CC50/EC50)” value in data set [1] (Table 5) was found to be 39285.

Turning to `N=C(N)NCCC[C@H](NC(=O)[C@@H]1CSSC[C@H](NC(=O)[C@H](Cc2c[nH]c3ccccc23)NC(=O)[C@H](CCCNC(=N)N)NC(=O)[C@@H](N)CCCNC(=N)N)C(=O)N[C@@H](Cc2ccc(O)cc2)C(=O)N[C@@H](CCCNC(=N)N)C(=O)N[C@@H](CCCCN)C(=O)N[C@H]2CSSC[C@H](NC(=O)[C@H](Cc3ccc(O)cc3)NC(=O)CNC(=O)[C@H](CCCCN)NC(=O)[C@H](Cc3ccc(O)cc3)NC2=O)C(=O)N[C@@H](Cc2ccc(O)cc2)C(=O)N[C@@H](CCCNC(=N)N)C(=O)N[C@@H](CCCCN)C(=O)N1)C(N)=O` [Polypeptide T-22, reference compound] (H-RRWCYRKCYKGYCYRKCR-NH2; disulfide 4-17, 8-13 (inferred); N-terminus assumed), the CC50 in the data set on MT-4 cells (setting [4]) is 54.1 µg/mL (≈ 21.8 µM); in the data set with MT-4 cells (setting [2]) it was 49.4 µg/mL (≈ 19.9 µM). Moreover, the EC50 in data set [1] (setting [5]) turned out to be 0.0099 µg/mL (≈ 0.00398 µM); in data set [1] (setting [3]), 0.017 µg/mL (≈ 0.00684 µM). The SI in data set [1] (Table 4) is 5,465.
